Patent US11964969B2, “Crystal forms of thiazole compound and application thereof” (PHAENO THERAPEUTICS CO., LTD, priority 2018, dated 2024)

Assays:
[1] = Hygroscopicity study by dynamic vapor sorption (DVS); type: physicochemical; details: 25° C. and 80% RH
Protocol: Dynamic Vapor Sorption (DVS) Method Used in the Present Disclosure
Instrument model: SMS DVS Advantage dynamic vapor sorption apparatus
Test condition: The sample (10˜15 mg) was taken and put into a DVS sample pan for testing.
The detailed DVS parameters were as follows:
Equilibration: dm/dt=0.01%/min (The shortest time: 10 min, and the longest time: 180 min)
Drying: Dried for 120 min at 0% RH
RH (%) test gradient: 10%
Range of RH (%) test gradient: 0%-90%-0%
The classification of hygroscopicity evaluation was as follows:
Example 4: Study on the Hygroscopicity of the Crystal Form B of the Compound of Formula (II)
SMS DVS Advantage dynamic vapor sorption apparatus
10-15 mg of the crystal form B of the compound of formula (II) was taken and put into a DVS sample pan for testing.

[2] = Evaluation of pharmacokinetics of the compound in mice; type: in vivo; details: male, mouse, plasma, Balb/c mice
Protocol: Assay Example 2: Evaluation of Pharmacokinetics of the Compound
Object of the assay: to test the pharmacokinetics of the compound in mice in vivo.
Balb/c mice (male, 18-22 g, 6-8 weeks old, from Shanghai SLAC)
The pharmacokinetic profile of the compound after intravenous injection and oral administration in the rodents was tested by the standard protocol. The candidate compound was formulated into a corresponding solution, and administered through a single intravenous injection (1.0 mg/kg, 5% of DMSO/95% of 20% hydroxypropyl-beta-cyclodextrin) or an intragastric administration (1.0 mg/kg, 0.5% of methylcellulose MC4000). The whole blood sample was collected within 24 hours, and centrifuged at 3000 g for 15 minutes. […] The resulting mixture was centrifuged and the supernatant was taken out, to which an equal volume of water was added and centrifuged. The supernatant was taken out, and injected as a sample to quantitatively analyze the plasma drug concentration by LC-MS/MS analysis method. The pharmacokinetic parameters were calculated, such as peak concentration, peak time, clearance rate, half-life, area under the drug-time curve, bioavailability, etc.

[3] = tested on: GHSV-UL 46 strain of herpes simplex virus-1 (HSV-1); assay: Assay of cytopathic effect (CPE) of herpes simplex virus-1 in Vero E6 cells; type: cell-based; details: Human alphaherpesvirus 1, Vero C1008, 120 h, read-out: HSV-1 Cytopathic Assay EC50
Protocol: Assay Example 1: Assay of Cytopathic Effect of Herpes Simplex Virus-1 (Evaluation In Vitro)
The assay of cytopathic effect (CPE) was used to determine the antiviral activity of the compound against the GHSV-UL 46 strain of herpes simplex virus-1 (HSV-1).
Virus: HSV-1 GHSV-UL46, ATCC #VR-1544
Cell: African green monkey kidney cell, Vero E6, donated by Wuhan Instititute of Virology, Chinese Academy of Sciences.
Cell growth medium: 500 ml of DMEM medium+50 ml of fetal bovine serum+5 ml of double antibody+5 ml of non-essential amino acids.
Medium for the assay of cytopathic effect: 500 ml of DMEM medium+10 ml of fetal bovine serum+5 ml of double antibody+5 ml of non-essential amino acids.
1.4. […]
2.2. […] Each test compound was measured at 8 concentrations in duplicate. […]
3.4. The absorbance value of each well of the cell plate was read with a microplate reader at a wavelength of 450 nm, and 630 nm was used as a reference wavelength. The value of raw data was the absorbance at 450 nm minus the absorbance at 630 nm (raw data=OD450−OD630).
4.1. The antiviral activity of the test compound (% Inhibition) was calculated using the following equation:
[formula] wherein sample is the absorbance value of compound test wells, cell control is the average absorbance value of cell control wells, and virus control is the average absorbance value of virus control wells. […]

Structure (SMILES) | Classification of hygroscopicity [1] | Weight increase by moisture absorption ΔW [1] [%] | bioavailability ([2]; intragastric (oral) administration 1.0 mg/kg, read-out: Bioavailability F) [%] | AUC ([2]; intragastric (oral) administration 1.0 mg/kg, read-out: Concentration integral AUC) [µM·h] | clearance ([2]; single intravenous injection 1.0 mg/kg, read-out: Clearance rate) [mL/min/kg] | half-life ([2]; single intravenous injection 1.0 mg/kg, read-out: Half-life T1/2 (converted)) [h] | EC50 [3] [nM]
CS(=O)(=O)O.Cc1nc(N(C)C(=O)[C@@H]2Cc3ccc(-c4ccccn4)cc3C2)sc1S(N)(=O)=O | slightly hygroscopic | 1.158 |  |  |  |  | 
Cc1nc(N(C)C(=O)[C@@H]2Cc3ccc(-c4ccccn4)cc3C2)sc1S(N)(=O)=O [Compound of formula (I)] |  |  | 75 | 24.4 | 1.2 | 6 | 7
